Data reported in BindingDB's records for patent WO2025045746 (695 Avenue de la Résistance, 2025).

Molecular target: T1, NAD(+) hydrolase SARM1 [28-724] (UniProt Q6SZW1)
T1 construct: 28-724
T1 sequence (Q6SZW1 whole entry): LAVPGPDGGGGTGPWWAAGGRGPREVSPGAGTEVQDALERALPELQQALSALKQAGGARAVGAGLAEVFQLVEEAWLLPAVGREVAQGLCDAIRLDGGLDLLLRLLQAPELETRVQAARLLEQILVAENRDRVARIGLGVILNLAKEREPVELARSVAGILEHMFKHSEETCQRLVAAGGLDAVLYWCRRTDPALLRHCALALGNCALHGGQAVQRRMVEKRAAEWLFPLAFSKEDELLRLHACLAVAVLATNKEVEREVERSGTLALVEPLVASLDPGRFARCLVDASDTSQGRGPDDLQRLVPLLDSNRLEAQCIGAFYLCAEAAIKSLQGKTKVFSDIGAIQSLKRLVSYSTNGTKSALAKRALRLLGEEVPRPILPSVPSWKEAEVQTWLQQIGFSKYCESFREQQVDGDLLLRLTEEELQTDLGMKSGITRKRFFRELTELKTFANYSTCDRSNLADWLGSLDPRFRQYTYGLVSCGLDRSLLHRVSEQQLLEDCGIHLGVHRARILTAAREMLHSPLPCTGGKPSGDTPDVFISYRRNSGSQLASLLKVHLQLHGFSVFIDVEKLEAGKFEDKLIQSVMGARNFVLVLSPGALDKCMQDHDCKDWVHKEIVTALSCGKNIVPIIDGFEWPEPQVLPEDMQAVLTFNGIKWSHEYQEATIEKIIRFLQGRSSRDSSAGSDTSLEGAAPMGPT
Assay: SARM1 Inhibitory Activity
Method: Assay reagents were prepared in 25mM HEPES pH 7.2, 50mM NaCl, 1mM EDTA and 0.0025% Tween20. […] The peak area of NAD and linear ADPR were measured by a RapidFire High Throughput Mass Spectrometry System (Agilent Technologies, Santa Clara, CA) using an API5000 triple quadrupole mass spectrometer (AB Sciex Framingham, MA). The ratio of linear ADPR to NAD peak area was then plotted against compound concentration to obtain an IC50 as fitted via non-linear regression.

SMILES | IC50 [nM]
O=C(c1cc(-c2ccncc2)n[nH]1)N1CCC(c2ccc(Cl)cc2)C1 (configuration not stated) [WO2025045746, Example 1] | 387
O=C(c1cc(-c2ccncc2)n[nH]1)N1CCC(c2ccccc2)C1 (configuration not stated) [WO2025045746, Example 2] | 4510
O=C(c1cc(-c2ccncc2)n[nH]1)N1CCC2(CCc3cc(Br)ccc32)C1 (configuration not stated) [WO2025045746, Example 3] | 3190
O=C(c1cc(-c2ccnnc2)n[nH]1)N1CCC(c2ccc(Cl)cc2)C1 (configuration not stated) [WO2025045746, Example 4] | 191
Cc1c(-c2ccnnc2)n[nH]c1C(=O)N1CCC(c2ccc(Cl)cc2)C1 (configuration not stated) [WO2025045746, Example 5] | 427
O=C(c1cc(-c2ccncc2)n[nH]1)N1CCC(c2ccccc2Cl)C1 (configuration not stated) [WO2025045746, Example 6] | 3040
O=C(c1cc(-c2ccncc2)n[nH]1)N1CCC(c2cccc(Cl)c2)C1 (configuration not stated) [WO2025045746, Example 7] | 1280
O=C(c1cc(-c2ccncc2)n[nH]1)N1CCC(c2ccc(F)cc2Cl)C1 (configuration not stated) [WO2025045746, Example 8] | 458
O=C(c1cc(-c2ccncc2)n[nH]1)N1CCC(c2ccc(Cl)s2)C1 (configuration not stated) [WO2025045746, Example 9] | 194
O=C(c1cc(-c2ccnnc2)n[nH]1)N1CCC(c2ccc(Cl)s2)C1 (configuration not stated) [WO2025045746, Example 10] | 98
CC1(C)CC(c2ccccc2)CN1C(=O)c1cc(-c2ccncc2)n[nH]1 (configuration not stated) [WO2025045746, Example 11] | 7390
O=C(c1cc(-c2ccncc2)n[nH]1)N1C[C@@H](O)[C@H](c2ccc(Cl)cc2)C1 [WO2025045746, Example 13] | 624
Cc1ccc(C2CCN(C(=O)c3cc(-c4ccnnc4)n[nH]3)C2)cc1 (configuration not stated) [WO2025045746, Example 14] | 2910
O=C(c1cc(-c2ccnnc2)n[nH]1)N1CCC(F)(c2cc(F)cc(F)c2)C1 (configuration not stated) [WO2025045746, Example 15] | 3740
N#Cc1ccc(C2CCN(C(=O)c3cc(-c4ccnnc4)n[nH]3)C2)cc1 (configuration not stated) [WO2025045746, Example 16] | 2170
O=C(c1cc(-c2ccnnc2)n[nH]1)N1CCC(c2ccc(F)c(F)c2)C1 (configuration not stated) [WO2025045746, Example 17] | 105
O=C(c1cc(-c2ccnnc2)n[nH]1)N1CCC(c2cccc(OC(F)(F)F)c2)C1 (configuration not stated) [WO2025045746, Example 18] | 6180
O=C(c1cc(-c2ccnnc2)n[nH]1)N1CCC(c2ccc(Cl)nc2)C1 (configuration not stated) [WO2025045746, Example 19] | 469
O=C(c1cc(-c2ccnnc2)n[nH]1)N1CCC(c2ccc(Cl)cn2)C1 (configuration not stated) [WO2025045746, Example 20] | 9660
O=C(c1cc(-c2ccnnc2)n[nH]1)N1C[C@@H](O)[C@H](c2ccc(Cl)cc2)C1 [WO2025045746, Example 21] | 351
O=C(c1cc(-c2ccnnc2)n[nH]1)N1C[C@H](O)[C@H](c2ccc(Cl)cc2)C1 [WO2025045746, Example 22] | 9220

SMILES | IC50 [nM]
O=C(c1cc(-c2ccnnc2)n[nH]1)N1CCC(F)(c2ccc(F)c(F)c2)C1 (configuration not stated) [WO2025045746, Example 23] | 2270
CC1CC(c2ccccc2)C(C)N1C(=O)c1cc(-c2ccnnc2)n[nH]1 (configuration not stated) [WO2025045746, Example 24] | 9480
C[C@@H]1C[C@H](c2ccc(F)cc2)CN1C(=O)c1cc(-c2ccnnc2)n[nH]1 [WO2025045746, Example 25] | 9540
O=C(c1cc(-c2ccncc2)n[nH]1)N1CC[C@H](c2ccc(Cl)cc2)C1 [WO2025045746, Example 26] | 194
O=C(c1cc(-c2ccncc2)n[nH]1)N1CC[C@@H](c2ccc(Cl)cc2)C1 [WO2025045746, Example 27] | 625
O=C(c1cc(-c2ccncc2)n[nH]1)N1CC[C@H](c2ccc(Cl)nc2)C1 [WO2025045746, Example 28] | 682
O=C(c1cc(-c2ccncc2)n[nH]1)N1CC[C@@H](c2ccc(Cl)nc2)C1 [WO2025045746, Example 29] | 2830
O=C(c1cc(-c2ccnnc2)n[nH]1)N1C[C@@H](O)[C@H](c2ccc(Cl)cc2)C1 [WO2025045746, Example 30] | 172
O=C(c1cc(-c2ccnnc2)n[nH]1)N1C[C@H](c2ccc(Cl)cc2)[C@@H](O)C1 [WO2025045746, Example 31] | 761
O=C(c1cc(-c2ccncc2)n[nH]1)N1CC(c2ccc(Cl)cc2)C2CCCCC21 (configuration not stated) [WO2025045746, Example 32] | 521
COc1cc(C2CCN(C(=O)c3cc(-c4ccnnc4)n[nH]3)C2)cc(F)c1F (configuration not stated) [WO2025045746, Example 33] | 2120
O=C(c1cc(-c2ccnnc2)n[nH]1)N1C[C@H](O)[C@H](c2ccc(Cl)cc2)C1 [WO2025045746, Example 34] | 5920
COc1c(-c2ccnnc2)n[nH]c1C(=O)N1CCC(c2ccc(Cl)cc2)C1 (configuration not stated) [WO2025045746, Example 35] | 698
O=C(c1cc(-c2ccncc2F)n[nH]1)N1CCC(c2ccc(Cl)cc2)C1 (configuration not stated) [WO2025045746, Example 36] | 1220
O=C(c1cc(-c2ccnnc2)n[nH]1)N1CCC(c2cnc(Cl)s2)C1 (configuration not stated) [WO2025045746, Example 37] | 1780
O=C(c1cc(-c2ccnnc2)n[nH]1)N1CCC(c2ncc(Cl)s2)C1 (configuration not stated) [WO2025045746, Example 38] | 8300
O=C(c1cc(-c2ccnnc2)n[nH]1)N1CCC(c2ccc(Cl)c(F)c2)C1 (configuration not stated) [WO2025045746, Example 39] | 73
N#Cc1ccc(C2CCN(C(=O)c3cc(-c4ccnnc4)n[nH]3)C2)s1 (configuration not stated) [WO2025045746, Example 40] | 746
O=C(c1cc(-c2ccnnc2)n[nH]1)N1CC[C@@H](c2ccc(F)c(F)c2)C1 [WO2025045746, Example 41] | 57
O=C(c1cc(-c2ccnnc2)n[nH]1)N1CC[C@H](c2ccc(F)c(F)c2)C1 [WO2025045746, Example 42] | 183
CC1CC(c2ccc(Cl)cc2)CN1C(=O)c1cc(-c2ccnnc2)n[nH]1 (configuration not stated) [WO2025045746, Example 43] | 8690

SMILES | IC50 [nM]
O=C(c1cc(-c2ccnnc2)n[nH]1)N1CCC(c2ccc(Br)s2)C1 (configuration not stated) [WO2025045746, Example 44] | 114
Cc1ccc(C2CCN(C(=O)c3cc(-c4ccnnc4)n[nH]3)C2)s1 (configuration not stated) [WO2025045746, Example 45] | 1540
CC1CN(C(=O)c2cc(-c3ccnnc3)n[nH]2)CC1c1ccc(Br)cc1 (configuration not stated) [WO2025045746, Example 46] | 188
O=C(c1[nH]nc(-c2ccnnc2)c1Cl)N1CCC(c2ccc(F)c(F)c2)C1 (configuration not stated) [WO2025045746, Example 47] | 142
Cc1csc(C2CCN(C(=O)c3cc(-c4ccnnc4)n[nH]3)C2)c1 (configuration not stated) [WO2025045746, Example 48] | 7410
O=C(c1[nH]nc(-c2ccnnc2)c1Cl)N1CC[C@@H](c2ccc(F)c(F)c2)C1 [WO2025045746, Example 49] | 379
O=C(c1[nH]nc(-c2ccnnc2)c1Cl)N1CC[C@H](c2ccc(F)c(F)c2)C1 [WO2025045746, Example 50] | 68
O=C(c1cc(-c2ccnnc2)n[nH]1)N1CCC(c2ccc(Br)cc2)C1 (configuration not stated) [WO2025045746, Example 51] | 461
C[C@@H]1CN(C(=O)c2cc(-c3ccnnc3)n[nH]2)C[C@H]1c1ccc(Br)cc1 [WO2025045746, Example 52] | 1360
C[C@H]1CN(C(=O)c2cc(-c3ccnnc3)n[nH]2)C[C@@H]1c1ccc(Br)cc1 [WO2025045746, Example 53] | 84
O=C(c1cc(-c2ccnnc2)n[nH]1)N1CCC(c2cc3ccccc3s2)C1 (configuration not stated) [WO2025045746, Example 54] | 8130
Cc1sc(C2CCN(C(=O)c3cc(-c4ccnnc4)n[nH]3)C2)cc1Br (configuration not stated) [WO2025045746, Example 55] | 2170
Cc1cnccc1-c1cc(C(=O)N2CC[C@@H](c3ccc(Cl)cc3)C2)[nH]n1 [WO2025045746, Example 56] | 500
Cc1cnccc1-c1cc(C(=O)N2CC[C@H](c3ccc(Cl)cc3)C2)[nH]n1 [WO2025045746, Example 57] | 2210
O=C(c1[nH]nc(-c2ccnnc2)c1Br)N1CC[C@H](c2ccc(Cl)cc2)C1 [WO2025045746, Example 58] | 340
O=C(c1[nH]nc(-c2ccnnc2)c1Br)N1CC[C@@H](c2ccc(Cl)cc2)C1 [WO2025045746, Example 59] | 1780
O=C(c1cc(-c2ccnnc2)n[nH]1)N1C[C@@H](CO)[C@H](c2ccc(Cl)cc2)C1 [WO2025045746, Example 60] | 72
O=C(c1cc(-c2ccnnc2)n[nH]1)N1C[C@H](CO)[C@@H](c2ccc(Cl)cc2)C1 [WO2025045746, Example 61] | 1240
O=C(c1[nH]nc(-c2ccnnc2)c1F)N1CC[C@H](c2ccc(Cl)cc2)C1 [WO2025045746, Example 63] | 95
O=C(c1[nH]nc(-c2ccnnc2)c1F)N1CC[C@@H](c2ccc(Cl)cc2)C1 [WO2025045746, Example 64] | 492
